From US10590129B2 (Incozen Therapeutics Pvt. Ltd., priority 2010, dated 2020) come the findings set out here.

Broadly, the inhibition is how much of the control response was suppressed. A high value points to a strong effect. One may read the GI50 as the concentration at which growth is held to half of that of the control. Low values mean more potent growth inhibition, high ones less potent growth inhibition.

Where a name gives a salt, the structure may show the parent alone.

The test concerns MKN-45 cells. The test can be described thus: Inhibition of MKN-45 proliferation (MTT). It counts as cell-based, human. The conditions noted are these: for inhibition at 0.1 µM / Inhibition (% Inhibition of MKN-45 proliferation): 0.1 μM. The protocol: Inhibition of MKN-45 Proliferation:
Cell proliferation assays were carried out using the high Met expressing human gastric adenocarcinoma cell line, MKN-45, according to the following schedule:
Day 1: Cells were plated in 96-well plates in complete growth medium.
Day 2: Compounds at desired concentrations were added.
Day 5: Cell viability was determined using the 3-[4,5-dimethylthiazol-2-yl]-2,5-diphenyltetrazolium bromide (MTT) dye reduction test.

Where [1] appears, read: Homo sapiens, MKN-45, MKN-45 proliferation.

Under setting [1], `CCNC(=O)c1ccc(-c2ccc3nnn(Cc4ccc5c(ccc[n+]5[O-])c4)c3n2)cc1Cl` gave an inhibition at 0.1 µM below 25% and an inhibition at 1 µM below 25%.
Under setting [1], `Cc1n[nH]cc1-c1ccc2nnn(Cc3ccc4ncccc4c3)c2n1` displayed an inhibition at 0.1 µM of 25 to 50% and an inhibition at 1 µM below 25%.
Under setting [1], `CC(c1ccc2ncccc2c1)n1nnc2ccc(-c3ccc(C(N)=O)c(Cl)c3)nc21` (racemic) [Ex 214, 2-Chloro-4-(3-(1-(quinolin-6-yl)ethyl)-3H-[1,2,3]triazolo[4,5-b]pyridin-5-yl)benzamide] registered a GI50 of at most 0.05 µM and an inhibition at 0.1 µM of 75 to 100%.
Turning to `C/C(=N/NC(=O)c1ccncc1)c1ccc2nnn(Cc3ccc4ncccc4c3)c2n1` (single isomer, unassigned) [Ex 220, N′-(1-(3-(quinolin-6-ylmethyl)-3H-[1,2,3]triazolo[4,5-b]pyridin-5-yl)ethylidene)iso-nicotinohydrazide], the inhibition at 0.1 µM under setting [1] is below 25%.
`OCc1ccc(-c2ccc3nnn(Cc4ccc5ncccc5c4)c3n2)cc1F` [Ex41, hydrochloride] came in with a GI50 (MKN-45 proliferation, hydrochloride) of 0.05 to 0.15 µM.
`O=C(NC1CCCCC1)c1ccc(-c2ccc3nnn(Cc4ccc5ncccc5c4)c3n2)cc1F` [Ex45] had a GI50 under setting [1] of 0.05 to 0.15 µM.
The compound `CNC(=O)c1cccc(-c2ccc3nnn(Cc4ccc5ncccc5c4)c3n2)c1` [Ex55] had a GI50 under setting [1] of 0.05 to 0.15 µM.
`C=CCNC(=O)c1ccc(-c2ccc3nnn(Cc4ccc5ncccc5c4)c3n2)cc1F` [Ex61]: the GI50 under setting [1] was at most 0.05 µM.
Same read-out and setting: the figure for `CONC(=O)c1ccc(-c2ccc3nnn(Cc4ccc5ncccc5c4)c3n2)cc1F` [Ex62] is at most 0.05 µM.
As for `Nc1ccc(-c2ccc3nnn(Cc4ccc5ncccc5c4)c3n2)cc1` [Ex64], the inhibition at 0.1 µM under setting [1] was below 25%.
With `O=C(NCc1ccco1)c1ccc(-c2ccc3nnn(Cc4ccc5ncccc5c4)c3n2)cc1F` [Ex92], the inhibition at 0.1 µM under setting [1] was below 25%.
On the same count and under the same terms, the figure for `O=C(NC1CC1)c1ccc(-c2ccc3nnn(Cc4ccc5ncccc5c4)c3n2)cc1Cl` [Ex113] is 75 to 100%.
Regarding `C[C@H](c1ccc2ncccc2c1)n1nnc2ccc(-c3ccc(C(N)=O)c(Cl)c3)nc21` [Ex222], the GI50 under setting [1] lay within 0.15 to 0.5 µM.
As to `O=C(O)c1ccc(-c2ccc3nnn(Cc4ccc5ncccc5c4)c3n2)cc1` [Ex 22, Lithium 4-(3-(quinolin-6-ylmethyl)-3H-[1,2,3]triazolo[4,5-b]pyridin-5-yl)benzoate], the inhibition at 1 µM (Homo sapiens, MKN-45 proliferation) is below 25%.
`CN1CCN(C(=O)c2ccc(-c3ccc4nnn(Cc5ccc6ncccc6c5)c4n3)cc2)CC1` [Ex 26, (4-Methylpiperazin-1-yl)(4-(3-(quinolin-6-ylmethyl)-3H-[1,2,3]triazolo[4,5-b]pyridin-5-yl)phenyl)methanone] returned a GI50 under setting [1] below 1 µM.
Same read-out and setting: the value for `CN(C)CCNC(=O)c1ccc(-c2ccc3nnn(Cc4ccc5ncccc5c4)c3n2)cc1` [Ex 27, N-(2-(dimethylamino)ethyl)-4-(3-(quinolin-6-ylmethyl)-3H-[1,2,3]triazolo[4,5-b]pyridin-5-yl)benzamide] was 0.05 to 0.15 µM; that for `O=C(NC1CCOCC1)c1ccc(-c2ccc3nnn(Cc4ccc5ncccc5c4)c3n2)cc1` [Ex 28, 4-(3-(quinolin-6-ylmethyl)-3H-[1,2,3]triazolo[4,5-b]pyridin-5-yl)-N-(tetrahydro-2H-pyran-4-yl)benzamide] was 0.15 to 0.5 µM; that for `O=C(NC1CCNCC1)c1ccc(-c2ccc3nnn(Cc4ccc5ncccc5c4)c3n2)cc1` [Ex 30, N-(Piperidin-4-yl)-4-(3-(quinolin-6-ylmethyl)-3H-[1,2,3]triazolo[4,5-b]pyridin-5-yl)benzamide hydrochloride] was 0.15 to 0.5 µM.
The same measure, in the same setting: the figure for `CN(C)CCNC(=O)c1ccc(-c2ccc3nnn(Cc4ccc5ncccc5c4)c3n2)cc1F` [Ex 31, N-(2-(dimethylamino)ethyl)-2-fluoro-4-(3-(quinolin-6-ylmethyl)-3H-[1,2,3]triazolo[4,5-b]pyridin-5-yl)benzamide] is 0.15 to 0.5 µM.
As to `O=C(c1ccc(-c2ccc3nnn(Cc4ccc5ncccc5c4)c3n2)cc1)N1CCC[C@H]1CN1CCCC1` [Ex 32, (S)-(2-(pyrrolidin-1-ylmethyl)pyrrolidin-1-yl)(4-(3-(quinolin-6-ylmethyl)-3H-[1,2,3]triazolo[4,5-b]pyridin-5-yl)phenyl)methanone hydrochloride], the GI50 under setting [1] was below 1 µM.
For `O=C(c1ccc(-c2ccc3nnn(Cc4ccc5ncccc5c4)c3n2)cc1)N1CCN(CCO)CC1` [Ex 33, (4-(2-hydroxyethyl)piperazin-1-yl)(4-(3-(quinolin-6-ylmethyl)-3H-[1,2,3]triazolo[4,5-b]pyridin-5-yl)phenyl)methanone], under setting [1], the GI50 was 0.15 to 0.5 µM.
In turn, `O=C(c1ccc(-c2ccc3nnn(Cc4ccc5ncccc5c4)c3n2)cc1)N1CC[C@@H](O)C1` [Ex 34, (R)-(3-hydroxypyrrolidin-1-yl)(4-(3-(quinolin-6-ylmethyl)-3H-[1,2,3]triazolo[4,5-b]pyridin-5-yl)phenyl)methanone hydrochloride] came in with a GI50 under setting [1] below 1 µM.
Still for that read-out and setting: the value for `O=C(NCCN1CCCCC1)c1ccc(-c2ccc3nnn(Cc4ccc5ncccc5c4)c3n2)cc1` [Ex 35, N-(2-(piperidin-1-yl)ethyl)-4-(3-(quinolin-6-ylmethyl)-3H-[1,2,3]triazolo[4,5-b]pyridin-5-yl)benzamide] was 0.05 to 0.15 µM.
On the same count and under the same terms, the value for `O=C(NCCN1CCOCC1)c1ccc(-c2ccc3nnn(Cc4ccc5ncccc5c4)c3n2)cc1` [Ex 36, N-(2-morpholinoethyl)-4-(3-(quinolin-6-ylmethyl)-3H-[1,2,3]triazolo[4,5-b]pyridin-5-yl)benzamide] was 0.05 to 0.15 µM; that for `O=C(NCCN1CCCC1)c1ccc(-c2ccc3nnn(Cc4ccc5ncccc5c4)c3n2)cc1` [Ex 37, N-(2-(pyrrolidin-1-yl)ethyl)-4-(3-(quinolin-6-ylmethyl)-3H-[1,2,3]triazolo[4,5-b]pyridin-5-yl)benzamide] was at most 0.05 µM.
As to `O=C(c1ccc(-c2ccc3nnn(Cc4ccc5ncccc5c4)c3n2)cc1)N1CCC(N2CCCC2)CC1` [Ex 38, (4-(pyrrolidin-1-yl)piperidin-1-yl)(4-(3-(quinolin-6-ylmethyl)-3H-[1,2,3]triazolo[4,5-b]pyridin-5-yl)phenyl)methanone], the GI50 under setting [1] is below 1 µM.
On the same count and under the same terms, the figure for `CN(C)CCCNC(=O)c1ccc(-c2ccc3nnn(Cc4ccc5ncccc5c4)c3n2)cc1` [Ex 39, N-(3-(dimethylamino)propyl)-4-(3-(quinolin-6-ylmethyl)-3H-[1,2,3]triazolo[4,5-b]pyridin-5-yl)benzamide] is 0.05 to 0.15 µM.
Still for that read-out and setting: the value for `COCCN(CCOC)C(=O)c1ccc(-c2ccc3nnn(Cc4ccc5ncccc5c4)c3n2)cc1` [Ex 40, N,N-Bis(2-methoxyethyl)-4-(3-(quinolin-6-ylmethyl)-3H-[1,2,3]triazolo[4,5-b]pyridin-5-yl)benzamide hydrochloride] was below 1 µM.
On the same count and under the same terms, the figure for `O=C(NCCN1CCCC1)c1ccc(-c2ccc3nnn(Cc4ccc5ncccc5c4)c3n2)cc1F` [Ex 44, 2-Fluoro-N-(2-(pyrrolidin-1-yl)ethyl)-4-(3-(quinolin-6-ylmethyl)-3H-[1,2,3]triazolo[4,5-b]pyridin-5-yl)benzamide] is 0.05 to 0.15 µM.
For `CNC(=O)c1cccc(-c2ccc3nnn(Cc4ccc5ncccc5c4)c3n2)c1` [Ex 55, N-Methyl-3-(3-(quinolin-6-ylmethyl)-3H-[1,2,3]triazolo[4,5-b]pyridin-5-yl)benzamide], under setting [1], the inhibition at 0.1 µM is below 25%.
Under setting [1], `O=C(O)CCNc1ccc(-c2ccc3nnn(Cc4ccc5ncccc5c4)c3n2)cc1F` [Ex 58, 3-(2-Fluoro-4-(3-(quinolin-6-ylmethyl)-3H-[1,2,3]triazolo[4,5-b]pyridin-5-yl)phenylamino)propanoic acid] came in with an inhibition at 0.1 µM below 25% and an inhibition at 1 µM below 25%.
`CCNC(=O)c1ccc(-c2ccc3nnn(Cc4ccc5ncccc5c4)c3n2)cc1F` [Ex 73, N-Ethyl-2-fluoro-4-(3-(quinolin-6-ylmethyl)-3H-[1,2,3]triazolo[4,5-b]pyridin-5-yl)benzamide hydrochloride]: under setting [1], the inhibition at 0.1 µM lay within 75 to 100% and the inhibition at 1 µM lay within 50 to 75%.
In the same order, the values of `NC(=O)c1ccc(-c2ccc3nnn(Cc4ccc5ncccc5c4)c3n2)cc1F` [Ex 74, 2-Fluoro-4-(3-(quinolin-6-ylmethyl)-3H-[1,2,3]triazolo[4,5-b]pyridin-5-yl)benzamide hydrochloride] are 50 to 75% and 50 to 75%.
Turning to `CC(C)(c1ccc2ncccc2c1)n1nnc2ccc(-c3ccc(C(N)=O)c(F)c3)nc21` [Ex 84, 2-Fluoro-4-(3-(2-(quinolin-6-yl)propan-2-yl)-3H-[1,2,3]triazolo[4,5-b]pyridin-5-yl)benzamide], under setting [1], the inhibition at 0.1 µM is below 25% and the inhibition at 1 µM was below 25%.
Take `O=C(NC1CC1)c1ccc(-c2ccc3nnn(Cc4ccc5c(ccc[n+]5[O-])c4)c3n2)cc1F` [Ex 88, 6-((5-(4-(Cyclopropylcarbamoyl)-3-fluorophenyl)-3H-[1,2,3]triazolo[4,5-b]pyridin-3-yl)methyl)quinoline 1-oxide]: under setting [1], the inhibition at 0.1 µM is below 25% and the inhibition at 1 µM is below 25%.
Under setting [1], `CN(C)CCCNC(=O)c1ccc(-c2ccc3nnn(Cc4ccc5ncccc5c4)c3n2)cc1F` [Ex 121, N-(3-(dimethylamino)propyl)-2-fluoro-4-(3-(quinolin-6-ylmethyl)-3H-[1,2,3]triazolo[4,5-b]pyridin-5-yl)benzamide dihydrochloride] showed an inhibition at 1 µM below 25%. For the same compound, the “Inhibition (% Inhibition of MKN-45 proliferation)” value (MKN-45 proliferation, dihydrochloride) is given as “A (A = ≥75 to 100%)”.
In the case of `Cl.NC(=O)c1ccc(-c2ccc3nnn(Cc4ccc5ncccc5c4)c3n2)cc1Cl` [Ex 123, 2-Chloro-4-(3-(quinolin-6-ylmethyl)-3H-[1,2,3]triazolo[4,5-b]pyridin-5-yl)benzamide hydrochloride], the “Inhibition (% Inhibition of MKN-45 proliferation)” value (MKN-45 proliferation) is recorded as “B (B = ≥50-<75%)”.
